We go through seven substances from patent US20080008707A1, “Denatured collagen peptides and uses thereof” (Cell-Matrix, Inc., priority 2006, published 2008).

Square brackets hold non-standard residues; d marks the D form. Ends that are not written are not given here. Hyp = O=C(O)[C@@H]1C[C@@H](O)CN1

For experiment [1], the system named is D93 binding to human denatured-collagen IV. The experiment in a line: Competition ELISA: synthetic peptides blocking D93 binding to heat denatured collagen IV. Particulars: average of two studies, vs 1% BSA/PBS alone. As for the experimental part: (§1) The ELISA was conducted as follows: wells of a 96-well microtiter plate (Immulon, 4 HBX flat-bottomed, Thermo Electron Corporation, Waltham, Mass.) were coated with 100 μL/well of dn-collagen IV at 10 μg/mL in Phosphate Buffered Saline (PBS) overnight at 4° C. The plate was washed 3 times (3×) with PBS containing 0.05% (v/v) Tween-20 (PBST) using an automated plate washer.
(§2) The plate was blocked by adding 300 μL/well of 1% BSA (w/v) in PBS for 1 hour at 25° C. followed by washing 3× in PBST as above.
(§3) Solutions of D93 or HUI77 were prepared with various concentrations of peptide or antibody inhibitor and incubate for 15 minutes. D93 or HUI77 was prepared at 200 ng/mL in 1% BSA/PBS.
(§4) For antibody blocking studies using synthetic peptides: peptide inhibitor stock solutions were prepared at 2 mM, 0.2 mM, 0.02 mM, and 0.002 mM in 1% BSA/PBS. 500 μL of a 2 mM peptide solution in 1% BSA/PBS was prepared and diluted 1:10 in 500 μL a total of three times to make peptide inhibitor concentrations.
(§5) 200 μL of D93 or HUI77 at 200 ng/mL solution was combined with 200 μL of peptide or antibody inhibitor solution and incubated for 15 minutes at room temperature.
(§6) D93 or HUI77 with various concentrations of inhibitors (2 mM, 0.2 mM, 0.02 mM, and 0.002 mM) were added to microplate wells and incubated for 1 hour at 25° C. The plate was washed 3× in PBST as above.
(§7) To each microtiter plate well, 100 μL of diluted anti-human IgG or anti-mouse IgM conjugated to horseradish peroxidase (HRP) in PBST was added and incubated for one hour at 25° C.: (a) for D93: Goat anti-human IgG-HRP (Jackson ImmunoResearch, Catalog No. 109-035-088) was used at 1:20,000 and (b) for HUI77: Goat anti-mouse IgM-HRP was used at 1:4,000. Plates were washed 3× in PBST as above.
(§8) Tetramethylbenzidine (TMB) substrate (100 μL; Pierce Chemicals)) was added to wells and the plates were allowed to develop at room temperature for 15 minutes in the dark. Substrate development was stopped by adding 50 μL/well of 2N H2SO4. The microtiter […] plates were read at 450 nm within five minutes of adding the H2SO4. Reactivity was measured with a microplate reader (Molecular Devices, Sunnyvale, Calif.) at a wavelength of 450 nm and analyzed using SOFTMax® PRO4.0 (Molecular Devices). All samples were tested in triplicate.
(§9) Individual peptides with amino acid substitutions and deletions were also synthesized based on the primary and secondary peptide arrays. […] The inhibitory activity of the individual peptides was tested by ELISA as previously described to measure binding of D93 or HUI77 to denatured collagen where peptides and antibodies were prepared at a 2× concentration and pre-incubated for 15 minutes prior to adding to microtiter plates coated with dn-collagen.
(§10) 96-well plates were coated with 100 μL/well of denatured (dn) collagen IV at 10 μg/mL in phosphate buffered saline (PBS) overnight at 4° C. followed by washing the plates in an automated plate washer 3 times in PBS containing 0.05% (v/v) Tween-20 (PBST). Non-specific binding was prevented by blocking the wells by adding 300 μL/well of 1% bovine serum albumin (BSA) (w/v) in PBS for 1 hour (hr) at 25° C. The plates were washed as above.
(§11) Solutions of D93 and HUI77 antibodies were prepared with various concentrations of inhibitor and incubated for 15 minutes. Briefly, 20 mLs of D93 or HUI77 were prepared at 200 ng/mL in 1% BSA/PBS. Solutions of peptide inhibitors (2 mM, 0.2 mM, […]) were prepared in 1% BSA/PBS. Equal volumes of antibodies and peptide inhibitors were combined: 200 μL of D93 or HUI77 (200 ng/mL solution) with 200 μL of each peptide solution.
(§12) 100 μL/well of D93 or HUI77 at 100 ng/mL with various concentrations of inhibitors were added to the wells in triplicate and incubated for 1 hour at 25° C. The plates were washed as described above.
(§13) 100 μL/well of secondary horseradish peroxidase (HRP)-conjugated antibody in PBST was added to each well and incubated for 1 hour (hr) at 25° C. […]

Experiment [2] concerns HUI77 binding to denatured collagen IV. The experiment in a line: Competition ELISA: synthetic peptides blocking HUI77 binding to heat denatured collagen IV. Details: species or system human. Particulars: average of two studies. As for the experimental part:
as §1, §2, §3, §4, §5, §6, §7, §8, §9, §10, §11, §12, §13

In experiment [3] the target is D93, recombinant humanized IgG1 kappa antibody targeting denatured-collagen. The experiment in a line: competition ELISA on coated human dn-collagen IV.
Sequence of D93, recombinant humanized IgG1 kappa antibody targeting denatured-collagen (heavy, as listed by the source, chain 1 of 2): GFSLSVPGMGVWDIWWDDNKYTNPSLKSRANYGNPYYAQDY
Sequence of D93, recombinant humanized IgG1 kappa antibody targeting denatured-collagen (light, as listed by the source, chain 2 of 2): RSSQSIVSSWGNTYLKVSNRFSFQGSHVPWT
The target of experiment [4] is HUI77, murine IgM anti-denatured-collagen monoclonal antibody. The experiment in a line: competition ELISA on coated dn-collagen IV.
The mark [5] stands for this setting: peptide inhibitor concentration 10 μM, listed as 11 (19), 10 µM.
The mark [6] stands for this setting: peptide inhibitor concentration 100 μM, listed as 11 (19), 100 µM.
[7] abbreviates: peptide inhibitor concentration 1000 μM, listed as 11 (19), 1000 µM.
Where [8] appears, read: peptide inhibitor concentration 1 μM.
[9] abbreviates: peptide inhibitor concentration 10 μM.
Where [10] appears, read: peptide inhibitor concentration 100 μM.
The mark [11] stands for this setting: peptide inhibitor concentration 1000 μM.

In the case of LPGPPGPPGPY [SEQ ID NO: 19], the “% INHIBITION OF BINDING OF D93 TO HUMAN DENATURED-COLLAGEN IV” value is 32% in experiment [1] (peptide inhibitor concentration 1 μM, listed as 11 (19), 1 µM); 83% in experiment [1] (setting [5]); 93.5% in experiment [1] (setting [6]); 93.5% in experiment [1] (setting [7]). Moreover, the “% INHIBITION OF BINDING OF HUI77 TO DENATURED COLLAGEN IV” value in experiment [2] (setting [5]) turned out to be 6.5%; in experiment [2] (setting [6]), 18.5%; in experiment [2] (setting [7]), 87%.

On to LPGSPG (L[Hyp]GS[Hyp]G) [SEQ ID NO: 26], for which the “% INHIBITION OF BINDING OF D93 TO HUMAN DENATURED-COLLAGEN IV” value in experiment [1] (setting [8]) was found to be 9.5%; in experiment [1] (setting [9]), 3.5%; in experiment [1] (setting [10]), 2.5%; in experiment [1] (setting [11]) it was 13.5%. Further, the “% INHIBITION OF BINDING OF HUI77 TO DENATURED COLLAGEN IV” value in experiment [2] (setting [9]) is 8%; in experiment [2] (setting [10]) it was 10.5%; in experiment [2] (setting [11]), 8.5%.

Consider LPGTPG (L[Hyp]GT[Hyp]G) [SEQ ID NO: 27], for which the “% INHIBITION OF BINDING OF D93 TO HUMAN DENATURED-COLLAGEN IV” value came out at 7% in experiment [1] (setting [8]), 2% in experiment [1] (setting [9]), 4.5% in experiment [1] (setting [10]) and 24% in experiment [1] (setting [11]). The “% INHIBITION OF BINDING OF HUI77 TO DENATURED COLLAGEN IV” value in experiment [2] (setting [9]) came to 3.5%; in experiment [2] (setting [10]), 4.5%; in experiment [2] (setting [11]), 6%.

With “PGAKGLPGP ([Hyp]GAKGLPGP) [SEQ ID NO: 17]”, the “% INHIBITION OF BINDING OF D93 TO HUMAN DENATURED-COLLAGEN IV” value was found to be 11% in experiment [1] (setting [8]), 6% in experiment [1] (setting [9]), 4% in experiment [1] (setting [10]) and 11.5% in experiment [1] (setting [11]). Also, the “% INHIBITION OF BINDING OF HUI77 TO DENATURED COLLAGEN IV” value in experiment [2] (setting [9]) came out at 8%; in experiment [2] (setting [10]), 10.5%; in experiment [2] (setting [11]), 10%.

Regarding “PGPPGPPGP (PGP[Hyp]GP[Hyp]GP) [SEQ ID NO: 29]”, the “% INHIBITION OF BINDING OF D93 TO HUMAN DENATURED-COLLAGEN IV” value was found to be 11.5% in experiment [1] (setting [8]), 40.5% in experiment [1] (setting [9]), 87.5% in experiment [1] (setting [10]) and 93.5% in experiment [1] (setting [11]). In addition, the “% INHIBITION OF BINDING OF HUI77 TO DENATURED COLLAGEN IV” value in experiment [2] (setting [9]) is 10.5%; in experiment [2] (setting [10]), 12.5%; in experiment [2] (setting [11]), 63%.

With “PGPPGPPGPY (PGP[Hyp]GP[Hyp]GPY) [SEQ ID NO: 28]”, the “% INHIBITION OF BINDING OF D93 TO HUMAN DENATURED-COLLAGEN IV” value in experiment [1] (setting [8]) is given as 33.5%; in experiment [1] (setting [9]), 83%; in experiment [1] (setting [10]), 93.5%; in experiment [1] (setting [11]), 93.5%. The “% INHIBITION OF BINDING OF HUI77 TO DENATURED COLLAGEN IV” value in experiment [2] (setting [9]) was determined as 7%; in experiment [2] (setting [10]), 16%; in experiment [2] (setting [11]), 86.5%.

For “synthetic peptide No. 21, GPPG (SEQ ID NO: 34)”, in experiment [3], the % inhibition of D93 binding to dn-collagen IV, peptide 1 µM is 9.5%; the % inhibition of D93 binding to dn-collagen IV, peptide 10 µM was determined as 6.5%; the % inhibition of D93 binding to dn-collagen IV, peptide 100 µM was 11%; the % inhibition of D93 binding to dn-collagen IV, peptide 1000 µM was 52%. Further, in experiment [4], the % inhibition of HUI77 binding to dn-collagen IV, peptide 10 µM turned out to be 6.5%; the % inhibition of HUI77 binding to dn-collagen IV, peptide 100 µM was 9%; the % inhibition of HUI77 binding to dn-collagen IV, peptide 1000 µM is 14%.
